Measurements from ChEMBL document CHEMBL1201862, “PubChem BioAssay data set” (2004).
Values joined by “and” are separate entries in the source; they are usually repeats but may differ in a detail not shown here. Identical values can stand only once. Active and inactive are the calls of the source.

Key:
cells = format: functional, cell-based
[1] = molecular target: T1, Nuclear receptor subfamily 0 group B member 1 (Homo sapiens, UniProt P51843); format: functional, cell-based;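 further: HEK293T cells transfected with SF-1 and DAX-1 plus StAR promoter luciferase reporter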
T1 sequence (P51843 whole entry): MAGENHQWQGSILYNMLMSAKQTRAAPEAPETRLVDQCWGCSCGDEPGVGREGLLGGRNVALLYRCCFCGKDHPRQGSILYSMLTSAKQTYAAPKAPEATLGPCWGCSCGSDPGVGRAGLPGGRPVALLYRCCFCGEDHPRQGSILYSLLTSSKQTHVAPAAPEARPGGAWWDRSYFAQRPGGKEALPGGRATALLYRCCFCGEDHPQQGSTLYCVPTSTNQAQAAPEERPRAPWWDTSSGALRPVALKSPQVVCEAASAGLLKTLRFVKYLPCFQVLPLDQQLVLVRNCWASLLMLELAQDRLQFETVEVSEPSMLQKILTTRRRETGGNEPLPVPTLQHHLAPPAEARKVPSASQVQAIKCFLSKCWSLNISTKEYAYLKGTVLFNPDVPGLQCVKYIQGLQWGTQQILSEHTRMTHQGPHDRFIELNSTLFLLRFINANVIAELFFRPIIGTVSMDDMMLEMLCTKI

[2] = molecular target: T2, Apoptotic protease-activating factor 1 (Homo sapiens, UniProt O14727); format: functional
T2 sequence (O14727 whole entry): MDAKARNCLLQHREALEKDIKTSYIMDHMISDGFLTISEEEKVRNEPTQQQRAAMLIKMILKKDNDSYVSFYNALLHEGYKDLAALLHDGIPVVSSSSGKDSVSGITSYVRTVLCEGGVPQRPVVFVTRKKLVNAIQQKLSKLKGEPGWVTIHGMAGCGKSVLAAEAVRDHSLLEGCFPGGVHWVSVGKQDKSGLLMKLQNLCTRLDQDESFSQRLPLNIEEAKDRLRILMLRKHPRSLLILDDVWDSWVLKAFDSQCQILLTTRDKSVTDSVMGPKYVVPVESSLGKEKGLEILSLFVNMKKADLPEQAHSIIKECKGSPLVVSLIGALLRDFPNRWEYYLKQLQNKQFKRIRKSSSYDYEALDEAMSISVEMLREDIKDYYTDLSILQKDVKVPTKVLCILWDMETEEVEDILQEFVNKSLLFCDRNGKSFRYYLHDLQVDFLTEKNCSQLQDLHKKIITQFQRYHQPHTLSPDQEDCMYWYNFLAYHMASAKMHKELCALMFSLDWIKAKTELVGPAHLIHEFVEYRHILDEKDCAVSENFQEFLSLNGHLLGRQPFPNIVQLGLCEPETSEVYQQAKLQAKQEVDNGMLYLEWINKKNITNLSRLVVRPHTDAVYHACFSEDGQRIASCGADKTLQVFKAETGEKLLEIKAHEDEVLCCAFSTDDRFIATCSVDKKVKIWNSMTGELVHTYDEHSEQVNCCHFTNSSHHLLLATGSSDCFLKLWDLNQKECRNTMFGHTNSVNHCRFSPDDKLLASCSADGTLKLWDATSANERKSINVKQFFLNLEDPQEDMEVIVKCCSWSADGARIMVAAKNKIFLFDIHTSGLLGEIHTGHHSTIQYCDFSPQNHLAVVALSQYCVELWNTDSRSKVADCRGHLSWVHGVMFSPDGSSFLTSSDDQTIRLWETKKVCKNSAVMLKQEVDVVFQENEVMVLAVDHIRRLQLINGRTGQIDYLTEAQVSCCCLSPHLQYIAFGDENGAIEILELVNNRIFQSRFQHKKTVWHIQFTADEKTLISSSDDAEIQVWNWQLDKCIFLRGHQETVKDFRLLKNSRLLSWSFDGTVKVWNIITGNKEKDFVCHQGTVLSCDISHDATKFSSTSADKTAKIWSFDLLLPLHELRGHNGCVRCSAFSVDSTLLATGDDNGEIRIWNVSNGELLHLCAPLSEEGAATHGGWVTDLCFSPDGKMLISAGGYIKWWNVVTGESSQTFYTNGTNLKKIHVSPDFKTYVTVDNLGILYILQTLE

INS1 = experiment: INS-1E survival protection against cytokine death – cell-based, luminescence, retest, dose response (AID 449756); format: functional; details: Rattus norvegicus;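 further: cell death triggered by IL-1 beta plus TNF-alpha plus IFN-gamma mixture; protective hits raise ATP signal compared with cytokine alone wells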
[3] = reduction of Shn3 3'UTR-driven luciferase in osteoblasts – cell-based, Clone20 osteoblasts, firefly luciferase, cherry-picked, dose response (AID 624132); format: functional;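 further: firefly luciferase luminescence from reporter carrying the Shn3 3'UTR in osteoblasts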
[4] = molecular target: Heat shock protein HSP 90-alpha (Homo sapiens, UniProt P07900); format: functional, organism-based
[5] = non-specific 3'UTR reporter inhibition in Clone20-Shn3RL – cell-based, Renilla luciferase, cherry-picked, counter-screen for Shn3 inhibitor project, dose response (AID 624133); format: functional
[6] = loss of viability in HepG2 cells – cell-based, CellTiter-Glo, cherry-picked, cytotoxicity control for Shn3 inhibitor project, dose response (AID 624134); format: functional
[7] = molecular target: FAD-linked sulfhydryl oxidase ALR (Homo sapiens, UniProt P55789); experiment: ALR-catalysed DTT oxidation blockers – biochemical, H2O2 detection, luminescence, cherry-pick, dose response (AID 493248)
Sequence of FAD-linked sulfhydryl oxidase ALR (P55789 whole entry, the tested form may be a part): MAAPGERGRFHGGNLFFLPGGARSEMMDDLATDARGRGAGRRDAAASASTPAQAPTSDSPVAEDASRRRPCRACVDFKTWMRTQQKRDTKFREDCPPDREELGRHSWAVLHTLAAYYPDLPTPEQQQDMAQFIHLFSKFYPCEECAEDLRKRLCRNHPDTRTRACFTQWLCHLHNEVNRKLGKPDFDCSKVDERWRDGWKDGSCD

[8] = Fluorescence-based cell-based high throughput dose response assay for inhibitors of the interaction of nucleotide-binding oligomerization domain containing 2 (NOD2) and the receptor-interacting serine-threonine kinase 2 (RIPK2).; format: functional; details: Homo sapiens
Cytochrome P450 3A4 = Cytochrome P450 3A4 (Homo sapiens, UniProt P08684);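 further: CYP3A4 tested as one member of a cytochrome P450 panel screen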
Sequence of Cytochrome P450 3A4 (P08684 whole entry): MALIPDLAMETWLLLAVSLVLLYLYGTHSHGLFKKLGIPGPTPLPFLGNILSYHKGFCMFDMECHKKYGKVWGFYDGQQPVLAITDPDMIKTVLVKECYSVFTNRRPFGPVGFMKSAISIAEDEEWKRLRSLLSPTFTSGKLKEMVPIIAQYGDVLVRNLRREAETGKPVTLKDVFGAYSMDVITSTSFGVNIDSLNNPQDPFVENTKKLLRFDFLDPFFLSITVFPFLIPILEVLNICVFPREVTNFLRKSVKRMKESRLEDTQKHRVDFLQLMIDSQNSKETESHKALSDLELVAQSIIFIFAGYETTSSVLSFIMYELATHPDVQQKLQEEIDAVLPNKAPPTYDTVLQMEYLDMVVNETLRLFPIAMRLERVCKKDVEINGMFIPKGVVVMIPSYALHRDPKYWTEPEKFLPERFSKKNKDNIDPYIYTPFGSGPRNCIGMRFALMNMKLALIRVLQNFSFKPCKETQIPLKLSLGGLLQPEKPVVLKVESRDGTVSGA

[9] = molecular target: T3, Short transient receptor potential channel 4 (Mus musculus, UniProt Q9QUQ5); experiment: calcium entry via TRPC4 opening agents – cell-based, HEK293 TRPC4/mu-opioid, Fluo-4 calcium, dose response (AID 434937); format: functional
T3 sequence (Q9QUQ5 whole entry): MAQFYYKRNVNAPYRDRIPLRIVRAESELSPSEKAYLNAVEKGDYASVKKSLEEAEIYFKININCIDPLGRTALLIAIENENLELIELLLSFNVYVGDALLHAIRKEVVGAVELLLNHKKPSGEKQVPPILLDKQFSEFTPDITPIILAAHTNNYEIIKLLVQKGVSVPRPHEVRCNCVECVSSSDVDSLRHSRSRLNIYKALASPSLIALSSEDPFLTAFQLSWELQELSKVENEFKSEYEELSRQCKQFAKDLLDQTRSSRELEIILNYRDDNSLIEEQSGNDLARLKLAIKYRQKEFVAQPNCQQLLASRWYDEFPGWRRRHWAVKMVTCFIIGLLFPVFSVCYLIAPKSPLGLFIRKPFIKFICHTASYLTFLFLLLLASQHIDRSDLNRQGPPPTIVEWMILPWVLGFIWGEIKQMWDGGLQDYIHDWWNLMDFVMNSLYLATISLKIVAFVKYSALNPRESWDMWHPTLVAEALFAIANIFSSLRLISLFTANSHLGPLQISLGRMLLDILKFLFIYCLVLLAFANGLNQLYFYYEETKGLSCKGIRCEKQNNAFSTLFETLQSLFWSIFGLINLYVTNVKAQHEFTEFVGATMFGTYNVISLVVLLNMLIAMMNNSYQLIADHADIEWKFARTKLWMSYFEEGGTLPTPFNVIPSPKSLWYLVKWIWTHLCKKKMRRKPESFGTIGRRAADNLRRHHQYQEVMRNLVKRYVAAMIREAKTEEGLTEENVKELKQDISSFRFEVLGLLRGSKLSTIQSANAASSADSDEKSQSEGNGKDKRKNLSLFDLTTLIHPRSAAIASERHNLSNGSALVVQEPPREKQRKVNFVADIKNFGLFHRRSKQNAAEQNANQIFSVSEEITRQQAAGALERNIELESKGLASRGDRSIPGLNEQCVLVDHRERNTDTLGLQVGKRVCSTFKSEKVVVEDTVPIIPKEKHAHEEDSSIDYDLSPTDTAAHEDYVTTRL

BJ [10] = experiment: BJ-TERT fibroblast viability loss – cell-based, RAS-independent, luminescence, dose response (AID 1933); format: functional; details: Homo sapiens
[11] = HEK-293T viability loss after treatment – luminescence, T-cell screen hits, cytotoxicity control for TCR NF-kB inhibitor project, dose response (AID 489026); format: functional, cell-based;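 further: cells exposed to compound about 14 hours before the viability readout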
BJ [12] = experiment: cells; format: functional, cell-based; details: Homo sapiens
[13] = DRD fibroblast viability loss – cell-based, non-viral oncogenic, luminescence, dose response (AID 1934); format: functional; details: Homo sapiens
BJ [14] = experiment: BJ-TERT-LT-ST fibroblast viability loss – cell-based, RAS-independent, luminescence, dose response (AID 1935); format: functional; details: Homo sapiens;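 further: BJ fibroblasts immortalized with TERT plus LT and ST oncogenes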
[15] = molecular target: Luciferin 4-monooxygenase (Photinus pyralis, UniProt P08659); experiment: inhibition of purified Photinus pyralis luciferase – biochemical, luminescence, dose response (AID 1891)
Sequence of Luciferin 4-monooxygenase (P08659 whole entry): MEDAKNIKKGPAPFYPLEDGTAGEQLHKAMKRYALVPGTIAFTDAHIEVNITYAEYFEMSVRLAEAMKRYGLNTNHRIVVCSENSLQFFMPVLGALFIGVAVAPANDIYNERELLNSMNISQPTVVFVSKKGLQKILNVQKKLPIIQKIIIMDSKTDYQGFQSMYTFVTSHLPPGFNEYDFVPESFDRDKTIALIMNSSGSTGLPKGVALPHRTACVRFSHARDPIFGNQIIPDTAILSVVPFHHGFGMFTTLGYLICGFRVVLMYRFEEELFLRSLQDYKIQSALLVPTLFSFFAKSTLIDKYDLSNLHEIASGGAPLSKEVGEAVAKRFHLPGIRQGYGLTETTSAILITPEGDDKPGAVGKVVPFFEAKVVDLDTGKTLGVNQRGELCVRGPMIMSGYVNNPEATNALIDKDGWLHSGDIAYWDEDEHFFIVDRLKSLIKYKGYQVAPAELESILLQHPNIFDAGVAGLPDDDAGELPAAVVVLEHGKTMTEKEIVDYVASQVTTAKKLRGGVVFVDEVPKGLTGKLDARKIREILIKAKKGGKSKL

[16] = Luminescence Cell-Based Dose Confirmation HTS to Identify Inhibitors of Platelet Dense Granule Release. [Related pubchem assays: 1663 (Primary HTS), 1678 (Summary of Project)]; format: functional
Cytochrome P450 2C9 = Cytochrome P450 2C9 (Homo sapiens, UniProt P11712)
Sequence of Cytochrome P450 2C9 (P11712 whole entry): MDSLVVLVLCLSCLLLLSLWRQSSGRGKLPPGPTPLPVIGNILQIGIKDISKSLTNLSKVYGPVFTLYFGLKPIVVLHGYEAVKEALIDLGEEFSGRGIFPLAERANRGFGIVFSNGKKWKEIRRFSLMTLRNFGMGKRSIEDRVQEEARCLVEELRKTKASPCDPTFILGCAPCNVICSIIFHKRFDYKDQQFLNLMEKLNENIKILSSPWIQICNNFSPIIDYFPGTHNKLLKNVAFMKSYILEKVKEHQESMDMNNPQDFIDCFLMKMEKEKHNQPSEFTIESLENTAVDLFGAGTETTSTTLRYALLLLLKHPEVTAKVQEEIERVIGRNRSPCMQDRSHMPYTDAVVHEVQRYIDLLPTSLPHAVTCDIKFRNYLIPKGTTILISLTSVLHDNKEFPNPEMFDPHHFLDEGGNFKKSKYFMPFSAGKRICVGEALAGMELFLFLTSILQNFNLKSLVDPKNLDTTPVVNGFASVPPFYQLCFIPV

Cytochrome P450 2C19 = Cytochrome P450 2C19 (Homo sapiens, UniProt P33261); experiment: Cytochrome panel assay with activity outcomes. Panel member name: p450-cyp2c19 Compounds with AC50 equal or less than 10 uM are considered active; format: functional; details: read-out: AC50
Sequence of Cytochrome P450 2C19 (P33261 whole entry): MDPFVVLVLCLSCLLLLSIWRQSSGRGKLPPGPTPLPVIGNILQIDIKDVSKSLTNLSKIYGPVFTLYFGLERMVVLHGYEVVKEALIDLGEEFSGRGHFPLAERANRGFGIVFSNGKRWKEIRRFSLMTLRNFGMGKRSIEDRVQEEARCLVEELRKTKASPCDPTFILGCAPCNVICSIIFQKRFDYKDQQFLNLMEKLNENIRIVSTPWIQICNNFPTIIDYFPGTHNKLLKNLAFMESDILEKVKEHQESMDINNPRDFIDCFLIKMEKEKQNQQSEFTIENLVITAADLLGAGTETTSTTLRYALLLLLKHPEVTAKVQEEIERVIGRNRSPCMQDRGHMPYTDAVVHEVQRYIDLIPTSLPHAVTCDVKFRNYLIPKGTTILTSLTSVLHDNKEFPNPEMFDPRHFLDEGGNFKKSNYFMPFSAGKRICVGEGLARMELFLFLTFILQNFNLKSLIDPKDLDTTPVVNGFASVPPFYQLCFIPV

[17] = molecular target: T3, Short transient receptor potential channel 4; experiment: block of DAMGO-driven TRPC4 calcium entry – cell-based, HEK293 TRPC4/mu-opioid, Fluo-4 calcium, dose response (AID 434942); format: functional;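 further: potency of inhibitors blocking the TRPC4 calcium response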
Large T antigen = Large T antigen (Simian virus 40, UniProt P03070); format: functional, Betapolyomavirus macacae;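 further: Confirmatory-stage PubChem screen for compounds that inhibit SV40 T antigen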
Sequence of Large T antigen (P03070 whole entry): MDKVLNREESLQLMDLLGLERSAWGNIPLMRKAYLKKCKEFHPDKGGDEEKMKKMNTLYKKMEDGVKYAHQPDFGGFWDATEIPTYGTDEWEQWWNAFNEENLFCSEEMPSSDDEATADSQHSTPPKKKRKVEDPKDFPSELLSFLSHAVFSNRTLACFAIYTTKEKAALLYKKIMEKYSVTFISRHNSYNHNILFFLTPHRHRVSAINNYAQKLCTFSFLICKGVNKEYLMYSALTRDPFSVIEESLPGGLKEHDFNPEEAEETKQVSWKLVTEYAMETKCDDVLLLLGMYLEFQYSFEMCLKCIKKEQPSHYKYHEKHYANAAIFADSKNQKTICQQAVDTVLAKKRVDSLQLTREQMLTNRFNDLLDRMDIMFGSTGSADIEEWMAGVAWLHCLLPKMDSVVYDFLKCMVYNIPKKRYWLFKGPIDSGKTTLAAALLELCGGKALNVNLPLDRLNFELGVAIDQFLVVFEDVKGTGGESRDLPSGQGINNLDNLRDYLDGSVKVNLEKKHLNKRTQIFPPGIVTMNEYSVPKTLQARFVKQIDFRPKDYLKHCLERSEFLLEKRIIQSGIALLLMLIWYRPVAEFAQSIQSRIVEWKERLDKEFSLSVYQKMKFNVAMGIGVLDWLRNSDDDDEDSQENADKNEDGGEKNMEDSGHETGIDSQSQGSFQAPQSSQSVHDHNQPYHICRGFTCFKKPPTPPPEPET

Vero = experiment: cells; format: functional; details: Chlorocebus sabaeus
[18] = molecular target: T4, DNA repair and recombination protein RAD54-like (Homo sapiens, UniProt Q92698); experiment: RAD54 Holliday junction migration blockers – biochemical, fluorescence, cherry-picked samples, dose series, confirmation (AID 651657); format: functional
T4 sequence (Q92698 whole entry): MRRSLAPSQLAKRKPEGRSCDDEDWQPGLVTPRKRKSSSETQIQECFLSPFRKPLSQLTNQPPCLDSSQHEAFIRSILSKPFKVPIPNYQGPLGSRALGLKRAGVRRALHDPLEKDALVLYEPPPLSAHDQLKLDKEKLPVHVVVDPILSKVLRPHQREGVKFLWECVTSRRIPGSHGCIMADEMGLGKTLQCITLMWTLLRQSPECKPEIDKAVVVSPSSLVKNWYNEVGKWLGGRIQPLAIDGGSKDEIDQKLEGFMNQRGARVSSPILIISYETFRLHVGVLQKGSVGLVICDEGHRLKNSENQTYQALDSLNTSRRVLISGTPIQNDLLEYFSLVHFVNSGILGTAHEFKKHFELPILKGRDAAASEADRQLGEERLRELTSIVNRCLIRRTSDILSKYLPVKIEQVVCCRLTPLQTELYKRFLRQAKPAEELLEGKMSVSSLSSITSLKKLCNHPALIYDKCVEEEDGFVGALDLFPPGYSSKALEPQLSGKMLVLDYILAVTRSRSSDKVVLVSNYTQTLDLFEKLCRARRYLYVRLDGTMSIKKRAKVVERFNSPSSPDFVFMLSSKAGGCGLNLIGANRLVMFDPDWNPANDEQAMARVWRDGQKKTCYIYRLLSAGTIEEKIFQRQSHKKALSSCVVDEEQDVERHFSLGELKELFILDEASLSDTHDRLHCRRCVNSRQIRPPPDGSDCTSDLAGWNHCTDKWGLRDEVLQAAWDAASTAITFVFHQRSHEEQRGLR

O=C(COc1ccc(Cl)cc1Cl)NC(=O)NC1CCCC1
IC50 (cells): > 67.5 µM (inactive) | IC50 [1]: > 67.5 µM (inactive)

CC(Oc1cccc(Cl)c1)C(=O)Nc1cc(S(=O)(=O)N2CCOCC2)ccc1N1CCCCC1 (configuration not stated)
IC50 [2]: 74.9 µM (active) | AC50 (INS1): 5.41 µM (active)

O=C(OCc1ccccc1)c1ccc(NCc2cc(O)ccc2O)cc1
AC50 [3]: 0.711 µM (active) | AC50 [4]: 8.63 µM (active) | AC50 [5]: 3.87 µM (active) | AC50 [6]: 22 µM (active)

COc1ccc(/C=N/Nc2nc3ccccc3o2)cc1O
IC50 (cells): > 67.5 µM (inactive) | AC50 [7]: 2.59 µM (active) | IC50 [1]: > 67.5 µM (inactive)

Cc1noc2ncnc(Sc3c(Cl)cccc3Cl)c12
IC50 [8]: 4.6 µM (active)

O=C(NCc1ccccc1)c1ccc2c(c1)C(=O)N(CC1CCCO1)C2=O (configuration not stated)
AC50 (Cytochrome P450 3A4): inconclusive

Cc1ccc(NC(=O)CCN2CCC(Cc3ccccc3)CC2)cc1
EC50 [9]: 0.0667 µM (active)

CC(=O)Nc1ccc(S(=O)(=O)N2c3ccccc3C(C)=CC2(C)C)cc1
EC50 (BJ [10]): 7.82 µM (inconclusive) | IC50 [11]: > 80 µM (inactive) | EC50 (BJ [12]): 13 µM (inconclusive) | EC50 [13]: 10.4 µM (inconclusive) | IC50 [8]: 49.7 µM (inactive) | EC50 (BJ [14]): 9.33 µM (inconclusive)

COc1ccc(S(N)(=O)=O)cc1C(=O)NCCCN1CCN(c2cccc(Cl)c2)CC1.CS(=O)(=O)O
EC50 [15]: > 112 µM (not active) | EC50 [16]: > 56.1 µM (not active) | AC50 (Cytochrome P450 2C9): 100 nM (inconclusive) | AC50 (Cytochrome P450 2C19): 14.1 µM (inconclusive) | AC50 (Cytochrome P450 3A4): inconclusive

Cc1ccc(COn2c(-c3ccc(Cl)cc3Cl)nc3ncccc32)cc1
EC50 [9]: 0.749 µM (active) | EC50 [17]: 0.473 µM (active)

COc1cc(-c2c(C#N)c(O)nc3c2c(C)nn3-c2ccccc2)ccc1O
IC50 [2]: 20.5 µM (active) | IC50 (Large T antigen): > 100 µM (active)

Cc1cc(C)c2c(N=NN3CCCCC3)[nH]nc2n1
AC50 [4]: 4.01 µM (active)

CC(=O)O[C@]1(C(C)=O)CC[C@@H]2[C@@H]3C=C(Cl)C4=CC(=O)[C@H]5C[C@@H]5[C@]4(C)[C@H]3CC[C@]21C
AC50 (Cytochrome P450 2C9): 15.8 µM (inconclusive) and 31.6 µM (inconclusive) | AC50 (Cytochrome P450 3A4): inconclusive

Cn1cccc1C(=O)N1CCC2(CCN(C(=O)Nc3ccccc3)CC2)CC1
AC50 (Cytochrome P450 3A4): inconclusive

NCCSc1c(-c2ccc(Cl)cc2)[nH]c2ccccc12
EC50 [9]: 4.73 µM (active) | CC50 (Vero): > 25 µM (active)

CCN1CCCC1CNS(=O)(=O)c1c(C)cc(C)cc1C (configuration not stated)
EC50 [9]: 3.35 µM (active)

c1ccc2c3nc[nH]c(N4CCN(C5CCCCC5)CC4)c-3nc2c1
AC50 [18]: 40.5 µM (active)
